Reference: paper PMC12368060 (Communications Biology, 2025)
Square brackets hold non-standard residues; d marks the D form. Peptide text beside a SMILES is read from it. * marks the point of attachment. FITC = O=C1OC2(c3ccc(O)cc3Oc3cc(O)ccc32)c2ccc(NC(=S)*)cc21; pS = N[C@@H](COP(=O)(O)O)C(=O)O; Ahx = NCCCCCC(=O)O

Target: GST-LC3B (Homo sapiens, UniProt Q9GZQ8)
Assay: Surface plasmon resonance
Format: binding
Conditions: read-out: kon (on-rate)

Row | SMILES | kon [M⁻¹ s⁻¹]
1 | CC[C@H](C)[C@H](NC(=O)[C@H](CCC(=O)O)NC(=O)[C@@H](NC(=O)[C@H](Cc1ccccc1)NC(=O)[C@H](CO)NC(=O)[C@H](CC(=O)O)NC(=O)[C@H](CCC(=O)O)NC(=O)[C@H](CO)NC(=O)[C@H](CO)NC(=O)CNC(=O)[C@H](CO)NC(=O)[C@H](CO)NC(=O)[C@H](CC(N)=O)NC(=O)CCCCCNC(=S)Nc1ccc2c(c1)C(=O)OC21c2ccc(O)cc2Oc2cc(O)ccc21)C(C)C)C(=O)N[C@@H](CCCNC(=N)N)C(=O)N[C@@H](CCSC)C(=O)N[C@@H](C)C(=O)N[C@@H](CCC(=O)O)C(=O)O [WT] ({FITC-Ahx}-NSSGSSEDSFVEIRMAE-OH) | 550
2 | CC[C@H](C)[C@H](NC(=O)[C@H](CCC(=O)O)NC(=O)[C@@H](NC(=O)[C@H](Cc1ccccc1)NC(=O)[C@H](COP(=O)(O)O)NC(=O)[C@H](CC(=O)O)NC(=O)[C@H](CCC(=O)O)NC(=O)[C@H](CO)NC(=O)[C@H](CO)NC(=O)CNC(=O)[C@H](CO)NC(=O)[C@H](CO)NC(=O)[C@H](CC(N)=O)NC(=O)CCCCCNC(=S)Nc1ccc2c(c1)C(=O)OC21c2ccc(O)cc2Oc2cc(O)ccc21)C(C)C)C(=O)N[C@@H](CCCNC(=N)N)C(=O)N[C@@H](CCSC)C(=O)N[C@@H](C)C(=O)N[C@@H](CCC(=O)O)C(=O)O [pS177] ({FITC-Ahx}-NSSGSSED[pS]FVEIRMAE-OH) | 17800
